Test results published in the supplement of paper PMC4862054.

What was measured:
Test in all cases: normalised response (% of control), CellTox Green; higher = less cell death (100 = DMSO, 0 = benzethonium chloride kill control)
Details in all cases: incubation time: 72 h
[1] = test system: BT-474
Method in brief: (§1)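 Each entry is the normalised signal at a single concentration within a series. The series comprised 5 concentrations in 10-fold steps over a compound-specific 10,000-fold range, placed in 384-well plates into which breast cancer cell lines were seeded as 20 µl suspension and incubated 72 h. CellTox Green (485/520 nm) fluorescence and then CellTiter-Glo luminescence were read, with signals normalised per plate to 0.1 % DMSO (100) and a positive kill control (0).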

[2] = test system: BT-549
Method in brief: as §1

[3] = test system: CAL-120
Method in brief: as §1

[4] = test system: CAL-148
Method in brief: as §1

[5] = test system: CAL-51
Method in brief: as §1

[6] = test system: CAL-85-1
Method in brief: as §1

[7] = test system: DU-4475
Method in brief: as §1

[8] = test system: HCC1599
Method in brief: as §1

[9] = test system: HCC1937
Method in brief: as §1

[10] = test system: Hs578T
Method in brief: as §1

[11] = test system: MDA-MB-453
Method in brief: as §1

SMILES | normalised response [1] [%] | normalised response [2] [%] | normalised response [3] [%] | normalised response [4] [%] | normalised response [5] [%] | normalised response [6] [%] | normalised response [7] [%] | normalised response [8] [%] | normalised response [9] [%] | normalised response [10] [%] | normalised response [11] [%]
CN(C)CCOc1ccc(/C(=C(/CCCl)c2ccccc2)c2ccccc2)cc1 [Toremifene] (1000 nM) | 100 | 99.3 | 99 | 89.1 | 102 | 106 | 99.9 | 95.5 | 110 | 55.3 | 106
O=P1(N(CCCl)CCCl)NCCCO1 (centres undefined) [Cyclophosphamide] (40000 nM) | 99.1 | 100 | 98.7 | 102 | 105 | 92.4 | 100 | 107 | 102 | 50.5 | 106
COc1cc2/c(=N/c3ccc(Br)cc3F)nc[nH]c2cc1OCC1CCN(C)CC1 [Vandetanib] (1000 nM) | 96.7 | 114 | 56.3 | 99.8 | 96.5 | 117 | 96.9 | 106 | 84.1 | 105 | 96.7
NC(=O)c1ccc(I)c([N+](=O)[O-])c1 [Iniparib] (1000 nM) | 94.6 | 121 | 93.3 | 82.5 | 90.7 | 101 | 95.2 | 89 | 63.7 | 56.3 | 88.2
N#Cc1ccc(COC[C@H]2O[C@@H](n3c(NCc4ccc(Cl)c(Cl)c4)nc4c(N)ncnc43)[C@H](O)[C@@H]2O)cc1 (10000 nM) | 98.8 | 111 | 98.2 | 95.2 | 91.6 |  | 104 | 109 | 106 | 120 | 102
c1ccc2c(CCNc3ccc(Nc4ccncc4)cc3)c[nH]c2c1 [Serdemetan] (1000 nM) | 99.5 | 124 | 97.1 | 73.4 | -44.2 | 102 | 94 | 89.1 |  | 92.3 | 102
Cc1ccc(NC(=O)c2ccc(CN3CCN(C)CC3)cc2)cc1Nc1nc(-c2cccnc2)cs1 [Masitinib] (10000 nM) | 53.3 | 109 | 78.5 | 101 | 74.2 | 76.8 | 100 | 67.6 | 88.7 | 70.7 | 87.1
COCC[n+]1c2c(n(Cc3cnccn3)c1C)C(=O)c1ccccc1C2=O [YM155] (1000 nM) | -1.55 | 14.8 | -14.7 | -7.66 | 4.79 | -94.7 | 77 | 51.1 | 9.52 | 92.9 | 42.2
COCC1(CO)C(=O)C2CCN1CC2 (centres undefined) [Prima-1 Met] (1000 nM) | 104 | 112 | 99.5 | 71.1 | 111 | 102 | 104 | 109 | 120 | 108 | 107
Cc1[nH]c2ccccc2c1CCNCc1ccc(/C=C/C(=O)NO)cc1 [Panobinostat] (100 nM) | 36.8 | 105 | 28.7 | -4.89 | -3.76 | 10.4 | 62.1 | 75 | -55.9 | -15.2 | 88.3
COc1cc(OC2CCN(C)CC2)ccc1Nc1ncc2c(n1)n(C1CCCC1)c(=O)n2C [AZ 3146] (1000 nM) | 101 | 120 | 100 | 90.9 | 51.4 | 103 | 97.9 | 92.5 | 88.2 | 97.5 | 109
COc1cc(OC2CCN(C)CC2)ccc1Nc1ncc2c(n1)n(C1CCCC1)c(=O)n2C [AZ 3146] (10000 nM) | 70.2 | 105 | 94.6 | 60.4 | 27.1 | 82.7 | 90.2 | 53.3 | -6.06 | 98.7 | 105
O=C(Nc1cccnc1)N1CCC(Cc2cccc(Oc3ccc(C(F)(F)F)cn3)c2)CC1 [PF-3845] (1000 nM) | 102 | 107 | 106 | 107 | 117 | 106 | 108 | 108 | 124 | 115 | 108
O=P1(N(CCCl)CCCl)NCCCO1 (centres undefined) [Cyclophosphamide] (4000 nM) | 100 | 98.7 | 101 | 104 | 112 | 100 | 102 | 105 | 124 | 62.1 | 105
CN(C)CCOc1ccc(/C(=C(/CCCl)c2ccccc2)c2ccccc2)cc1 [Toremifene] (10000 nM) | 22.9 | 82 | 91.8 | 59.6 | 104 | 79.9 | 94.6 | 80.3 | -3.77 | 103 | 86.4
CC(C)C[C@@H](C(=O)N[C@H](C(=O)OC1CCCC1)c1ccccc1)[C@H](O)C(=O)NO [Tosedostat] (10000 nM) | 66.9 | -46.2 | 36.2 | 54.2 | 48.5 | -30.8 | 97.8 | 95.4 | 76.8 | 89.8 | 86.1
CN(C)c1nc(N(C)C)nc(N(C)C)n1 [Altretamine] (1000 nM) | 100 | 107 | 104 | 101 | 111 | 102 | 103 | 90.7 | 118 | 98.1 | 105

SMILES | normalised response [1] [%] | normalised response [2] [%] | normalised response [3] [%] | normalised response [4] [%] | normalised response [5] [%] | normalised response [6] [%] | normalised response [7] [%] | normalised response [8] [%] | normalised response [9] [%] | normalised response [10] [%] | normalised response [11] [%]
Cc1ccc(NC(=O)c2ccc(CN3CCN(C)CC3)cc2)cc1Nc1nc(-c2cccnc2)cs1 [Masitinib] (1000 nM) | 102 | 110 | 99.2 | 97.3 | 103 | 98.9 | 100 | 101 | 113 | 97.8 | 102
Cc1[nH]c2ccccc2c1CCNCc1ccc(/C=C/C(=O)NO)cc1 [Panobinostat] (1000 nM) | 19.9 | 69.6 | -30.8 | 4.38 | -9.56 | -26 | 68.2 | 53.1 | -17.6 | -12.8 | 75.5
O=C(/C=C/c1cccc(S(=O)(=O)Nc2ccccc2)c1)NO [Belinostat] (10000 nM) | 21.2 | 103 | -14 | 26.6 | -15.2 | -19.3 | 76 | 93.8 | 80.3 | 37.3 | 88.7
NC(=O)c1ccc(I)c([N+](=O)[O-])c1 [Iniparib] (10000 nM) | 89.9 | 113 | 88.8 | 101 | 83.7 | 142 | 94.3 | 100 | 107 |  | 99.6
O=C(Nc1ccncc1)C(=O)c1cn(Cc2ccc(Cl)cc2)c2ccccc12 [Indibulin] (1000 nM) | 92.1 | 117 | 89.4 | 96.3 | 40.5 | 48.8 | 101 | 104 | 68.1 | 94.6 | 106
CCc1c2c(nc3ccc(OC(=O)N4CCC(N5CCCCC5)CC4)cc13)-c1cc3c(c(=O)n1C2)COC(=O)[C@]3(O)CC [Irinotecan] (1000 nM) | 103 | 121 | 93.5 | 29.8 | 61.9 | 93.1 | 99.1 | 99.1 | 123 | 81.9 | 107
CO[C@H]1C[C@@H]2CC[C@@H](C)[C@@](O)(O2)C(=O)C(=O)N2CCCC[C@H]2C(=O)O[C@H]([C@H](C)C[C@@H]2CC[C@@H](OP(C)(C)=O)[C@H](OC)C2)CC(=O)[C@H](C)/C=C(\C)[C@@H](O)[C@@H](OC)C(=O)[C@H](C)C[C@H](C)/C=C/C=C/C=C/1C [Ridaforolimus] (100 nM) | 100 | 125 | 106 | 85.5 | 102 | 92.7 | 100 | 89.3 | 103 | 116 | 104
c1ccc2c(CCNc3ccc(Nc4ccncc4)cc3)c[nH]c2c1 [Serdemetan] (10000 nM) | 56.7 | 86.7 | 88.8 | 26 | 69.5 | 94 | 68.3 | 82.8 | 102 | 118 | 95.2
Oc1ccc2c(c1)CC[C@H](c1ccccc1)[C@@H]2c1ccc(OCCN2CCCC2)cc1 [Lasofoxifene] (100 nM) | 103 | 113 | 93.6 | 62.9 | 123 | 82.2 | 105 | 95.2 | 113 | 84.9 | 88
CC(C)C[C@@H](C(=O)N[C@H](C(=O)OC1CCCC1)c1ccccc1)[C@H](O)C(=O)NO [Tosedostat] (1000 nM) | 91.7 | 70.1 | 39.9 | 84.1 | 52.9 | 1.91 | 101 | 90.8 | 90.1 | 89 | 95.1
CNC(=O)c1cc(Oc2ccc(NC(=O)Nc3ccc(Cl)c(C(F)(F)F)c3)c(F)c2)ccn1 [Regorafenib] (10000 nM) | 82 | 109 | 97.2 | 85.1 | 108 | 83.8 | 92.5 | 106 | 10.5 | 109 | 98.3
C=C1C[C@@H]2[C@H](CC[C@]3(C)C(=O)CC[C@@H]23)[C@@]2(C)C=CC(=O)C=C12 [Exemestane] (10000 nM) | 105 | 81.2 | 103 | 106 | 103 | 71.2 | 106 | 112 | 115 | 117 | 106
COCC[n+]1c2c(n(Cc3cnccn3)c1C)C(=O)c1ccccc1C2=O [YM155] (10000 nM) | -15 | 8.26 | -11.6 | 2.48 | 8.9 | -73.8 | 68.1 | 55.7 | 1.09 | 18.1 | 28.4
O=C(Nc1ccncc1)C(=O)c1cn(Cc2ccc(Cl)cc2)c2ccccc12 [Indibulin] (10000 nM) | 81.4 | 95.4 | 85.8 | 65.3 | -2.59 | 16.7 | 106 | 105 | 99 | 76.3 | 105
O=C(Nc1cccnc1)N1CCC(Cc2cccc(Oc3ccc(C(F)(F)F)cn3)c2)CC1 [PF-3845] (10000 nM) | 76.7 | 111 | 97.4 | 103 | 108 | 69.5 | 101 | 95.7 | 76.2 | 90.3 | 63.6
C=C1C[C@@H]2[C@H](CC[C@]3(C)C(=O)CC[C@@H]23)[C@@]2(C)C=CC(=O)C=C12 [Exemestane] (1000 nM) | 97.2 | 113 | 105 | 96.9 | 106 | 99 | 109 | 108 | 121 |  | 112
COCC1(CO)C(=O)C2CCN1CC2 (centres undefined) [Prima-1 Met] (10000 nM) | 101 | 63.4 | 92.1 | 99.3 | 115 | 74.2 | 107 | 108 |  | 117 | 104
